The source of these data is article PMC5638611, “Effects of glutamate and ivermectin on single glutamate-gated chloride channels of the parasitic nematode H. contortus” (PLoS Pathogens, 2017).

Each structure is given as a SMILES string.

Test [1] deals with T1, glutamate-gated chloride channel receptor α (avr-14b) (GluClR), homomeric, G36'A mutant (Haemonchus contortus, UniProt O46124, G329A).
T1 construct: gene gbr-2; homomeric avr-14b subunit expressed in HEK AD293 cells
Description: outside-out patch single-channel recording; direct activation by […] IVM. In kind it is cell-based.

Test [2] deals with T2, glutamate-gated chloride channel receptor α (avr-14b) (GluClR), homomeric (Haemonchus contortus, UniProt O46124).
T2 construct: gene gbr-2; homomeric avr-14b subunit expressed in HEK AD293 cells
T2 sequence (O46124 entry or part of it): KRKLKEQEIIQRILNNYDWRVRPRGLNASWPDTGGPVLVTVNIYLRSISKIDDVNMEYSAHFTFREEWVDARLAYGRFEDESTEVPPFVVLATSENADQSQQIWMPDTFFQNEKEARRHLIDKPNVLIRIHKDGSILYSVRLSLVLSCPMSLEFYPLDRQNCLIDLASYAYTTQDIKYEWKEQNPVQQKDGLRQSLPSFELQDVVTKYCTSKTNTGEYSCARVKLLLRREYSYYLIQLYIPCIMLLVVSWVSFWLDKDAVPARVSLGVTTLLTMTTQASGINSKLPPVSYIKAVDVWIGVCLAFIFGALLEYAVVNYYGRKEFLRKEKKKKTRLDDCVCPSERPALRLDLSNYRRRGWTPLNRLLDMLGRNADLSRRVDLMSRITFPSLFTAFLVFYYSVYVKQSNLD
Description: outside-out patch single-channel recording; direct activation by […] IVM, and potentiation of […] glutamate. In kind it is cell-based.

T1 sequence (O46124 31-438 G329A): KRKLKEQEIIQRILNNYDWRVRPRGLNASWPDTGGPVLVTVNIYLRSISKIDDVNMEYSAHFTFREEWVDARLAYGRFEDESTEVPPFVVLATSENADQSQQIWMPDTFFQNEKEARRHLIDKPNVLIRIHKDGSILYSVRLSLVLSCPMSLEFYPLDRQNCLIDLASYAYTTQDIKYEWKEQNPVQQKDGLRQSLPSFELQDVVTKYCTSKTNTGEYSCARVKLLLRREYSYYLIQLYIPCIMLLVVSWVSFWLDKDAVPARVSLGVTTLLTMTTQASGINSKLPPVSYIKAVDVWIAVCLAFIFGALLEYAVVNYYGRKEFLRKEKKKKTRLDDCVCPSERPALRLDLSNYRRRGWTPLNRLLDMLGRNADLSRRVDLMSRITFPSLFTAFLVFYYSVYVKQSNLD

In the case of `CC[C@H](C)[C@H]1O[C@]2(CC[C@@H]1C)C[C@@H]1C[C@@H](C/C=C(\C)[C@@H](O[C@H]3C[C@H](OC)[C@@H](O[C@H]4C[C@H](OC)[C@@H](O)[C@H](C)O4)[C@H](C)O3)[C@@H](C)/C=C/C=C3\CO[C@@H]4[C@H](O)C(C)=C[C@@H](C(=O)O1)[C@]34O)O2` [Ivermectin], the “outside-out patch single-channel recording; direct activation by 5 nM IVM” value in test [1] is on record as 5 nM. Moreover, the “outside-out patch single-channel recording; direct activation by 5 nM IVM, and p” value in test [2] is recorded as 5 nM.
